US12371439B2, “Crystalline form B of tetrahydrothienopyridine compound, preparation method, composition and application thereof” (Chengdu Shibeikang Biomedical Technology Co. Ltd., priority 2019, dated 2025)

Experiment: Stability investigation of the crystalline forms (HPLC purity, samples placed open and flat)
Assay type: physicochemical
Procedure: The crystalline forms of the compound of formula I obtained from each example and each comparative preparation example were analyzed by HPLC.
Instrument and equipment: Agilent-1100 High Performance Liquid Chromatograph;
Chromatographic conditions and system suitability test: octadecylsilane-bonded silica gel was used as a filler; water (pH adjusted to 3.8 with phosphoric acid):acetonitrile (45:55) was used as a mobile phase; detection wavelength was 220 nm; theoretical tower plate number should not be less than 2000; the resolution should not be less than 2.0; and the resolution from other adjacent impurity peaks should meet the requirements.
Test solution: an appropriate amount of the compound obtained from each example was accurately weighed, dissolved in anhydrous ethanol, and diluted quantitatively to prepare a solution containing about 1 mg compound per 1 ml solution as the test solution.
Reference solution: 1 ml of reference solution of the compound of formula I was accurately measured, and placed into a 100 ml volumetric flask, diluted with anhydrous ethanol to the scale, and shaken well to obtain the reference solution. Reference substance: calibrated standard substance of the compound of formula I provided by Chengdu Shibeikang Biomedical Technology Co., Ltd.
Determination method: according to General Chapter 0512 High Performance Liquid Chromatography in Chinese Pharmacopoeia (2015 Edition) Volume IV, 10 μl of the test solution and 10 μl of the reference solution were accurately measured respectively, and injected into the liquid chromatograph to record chromatograms.
Samples of the crystalline form B from each Example and the crystalline form from each comparative preparation example were placed in an open and flat way to investigate 5-day stability and 10-day stability of the samples under the conditions of light (4500 Lux), heating at 40° C. and 60° C. and high humidity of 75% and 90%, respectively. The detection was carried out according to the determination method in Test 1, and HPLC purity detection results were shown in the table below.

Structure (SMILES)	HPLC purity Day 0 (%) (heating at 40° C.)	HPLC purity Day 5 (%) (heating at 40° C.)	HPLC purity Day 10 (%) (heating at 40° C.)	HPLC purity Day 0 (%) (heating at 60° C.)	HPLC purity Day 5 (%) (heating at 60° C.)	HPLC purity Day 10 (%) (heating at 60° C.)	HPLC purity Day 0 (%) (high humidity of 90%)	HPLC purity Day 5 (%) (high humidity of 90%)	HPLC purity Day 10 (%) (high humidity of 90%)	HPLC purity Day 0 (%) (light (4500 Lux))	HPLC purity Day 5 (%) (light (4500 Lux))	HPLC purity Day 10 (%) (light (4500 Lux))
COC(=O)[C@H](c1ccccc1Cl)N1CC[C@@H]2SC(=O)C=C2C1 (racemic) [Comparative preparation example 1, methyl (S)-2-(2-chlorophenyl)-2-((S)-2-oxo-2,6,7,7a-tetrahydrothieno[3,2-c]pyridin-5(4H)-yl)acetate, reference compound]	96.89	96.31	95.35	96.89	95.45	94.37	96.89	96.75	96.69	96.89	96.80	96.75
COC(=O)[C@H](c1ccccc1Cl)N1CC[C@@H]2SC(=O)C=C2C1 (racemic) [Comparative preparation example 2, methyl (S)-2-(2-chlorophenyl)-2-((S)-2-oxo-2,6,7,7a-tetrahydrothieno[3,2-c]pyridin-5(4H)-yl)acetate, reference compound]	96.43	96.01	94.78	96.43	95.23	93.89	96.43	96.33	96.23	96.43	96.35	96.27
COC(=O)[C@H](c1ccccc1Cl)N1CC[C@@H]2SC(=O)C=C2C1 (racemic) [Comparative preparation example 3, methyl (S)-2-(2-chlorophenyl)-2-((S)-2-oxo-2,6,7,7a-tetrahydrothieno[3,2-c]pyridin-5(4H)-yl)acetate, reference compound]	97.73	97.22	96.13	97.73	96.60	95.23	97.73	97.66	97.58	97.73	97.70	97.65
COC(=O)[C@H](c1ccccc1Cl)N1CC[C@@H]2SC(=O)C=C2C1 [Example 1, methyl (S)-2-(2-chlorophenyl)-2-((S)-2-oxo-2,6,7,7a-tetrahydrothieno[3,2-c]pyridin-5(4H)-yl)acetate]	99.82	99.82	99.81	99.82	99.79	99.77	99.82	99.82	99.81	99.82	99.82	99.82
COC(=O)[C@H](c1ccccc1Cl)N1CC[C@@H]2SC(=O)C=C2C1 [Example 2, methyl (S)-2-(2-chlorophenyl)-2-((S)-2-oxo-2,6,7,7a-tetrahydrothieno[3,2-c]pyridin-5(4H)-yl)acetate]	99.92	99.92	99.91	99.92	99.87	99.84	99.92	99.92	99.91	99.92	99.92	99.92
COC(=O)[C@H](c1ccccc1Cl)N1CC[C@@H]2SC(=O)C=C2C1 [Example 3, methyl (S)-2-(2-chlorophenyl)-2-((S)-2-oxo-2,6,7,7a-tetrahydrothieno[3,2-c]pyridin-5(4H)-yl)acetate]	99.94	99.93	99.93	99.94	99.90	99.88	99.94	99.94	99.94	99.94	99.94	99.94
COC(=O)[C@H](c1ccccc1Cl)N1CC[C@@H]2SC(=O)C=C2C1 [Example 4, methyl (S)-2-(2-chlorophenyl)-2-((S)-2-oxo-2,6,7,7a-tetrahydrothieno[3,2-c]pyridin-5(4H)-yl)acetate]	99.89	99.89	99.88	99.89	99.87	99.86	99.89	99.89	99.89	99.89	99.89	99.89
COC(=O)[C@H](c1ccccc1Cl)N1CC[C@@H]2SC(=O)C=C2C1 [Example 5, methyl (S)-2-(2-chlorophenyl)-2-((S)-2-oxo-2,6,7,7a-tetrahydrothieno[3,2-c]pyridin-5(4H)-yl)acetate]	99.87	99.87	99.87	99.87	99.85	99.85	99.87	99.87	99.86	99.87	99.87	99.86
COC(=O)[C@H](c1ccccc1Cl)N1CC[C@@H]2SC(=O)C=C2C1 [Example 6, methyl (S)-2-(2-chlorophenyl)-2-((S)-2-oxo-2,6,7,7a-tetrahydrothieno[3,2-c]pyridin-5(4H)-yl)acetate]	99.91	99.91	99.90	99.91	99.89	99.88	99.91	99.91	99.90	99.91	99.91	99.90
COC(=O)[C@H](c1ccccc1Cl)N1CC[C@@H]2SC(=O)C=C2C1 [Example 7, methyl (S)-2-(2-chlorophenyl)-2-((S)-2-oxo-2,6,7,7a-tetrahydrothieno[3,2-c]pyridin-5(4H)-yl)acetate]	99.88	99.88	99.88	99.88	99.85	99.84	99.88	99.88	99.87	99.88	99.88	99.87
